Assay results: patent US9505725B2, “Crystalline and mesomorphous forms of an AKT inhibiting pyrimidinyl-cyclopentane compound, compositions and methods thereof” (priority 2012, dated 2016)
Like-named read-outs stand apart in the source and are kept apart here.

Assays:
[1] = Hygroscopicity / water sorption analysis; type: physicochemical; conditions: continuous water sorption profile at 25° C. from 0-90% RH
[2] = Variable temperature XRPD (thermal stability of the solid form); type: physicochemical; conditions: heating, XRPD as a function of temperature
Description: Heating the product of Example 1 leads to loss in structure (diffracted peaks start to disappear in the 100-160° C. range) and the solid-state form becomes amorphous.
At temperatures ≧80° C., there is substantial loss of crystallinity. In both samples, they appear to be X-ray amorphous at 90° C. and above (due to melting of the lattice solvent and dissolution of the solid phase in it as confirmed by hot stage microscopy).

[3] = XRPD after exposure to water vapor (relative humidity); type: physicochemical; conditions: room temperature, different RH conditions, 5-7 days
[4] = forms isolated in Example 14 of U.S. Pat. No. 8,063,050; cited from earlier work
[5] = Critical micelle concentration in propylene glycol caprylate (Capryol 90); type: physicochemical; conditions: in propylene glycol caprylate (e.g., Capryol 90)
Description: Such high doses are generally unachievable with active pharmaceutical ingredients in the lipid like liquid fill solvent systems. […] The critical micelle concentration for GDC-0068 in propylene glycol caprylate (e.g., Capryol 90™) was determined to be 0.945 g/g.

[6] = Solubility in solvents, antisolvents and liquid fill solvents; type: physicochemical; conditions: organic solvent or mixture
Description: In one example, antisolvents include pentane, hexane, cyclohexane, heptane, ethyl acetate, iso-propyl acetate, methyl t-butyl ether (MTBE) and methyl iso-butyl ketone.
In one example, solvents include water, alcohols such as methanol, ethanol, isopropanol, 2-butanol, t-butanol and 2-methoxy ethanol, polar ethers such as tetrahydrofuran and 2-methyltetrahydrofuran, toluene, chloroform, dichloromethane, 1,2-dichloroethane and acetone.

CC(C)NC[C@@H](C(=O)N1CCN(c2ncnc3c2[C@H](C)C[C@H]3O)CC1)c1ccc(Cl)cc1.Cl [Example 1, (S)-2-(4-chlorophenyl)-1-(4-((5R,7R)-7-hydroxy-5-methyl-6,7-dihydro-5H-cyclopenta[d]pyrimidin-4-yl)piperazin-1-yl)-3-(isopropylamino)propan-1-one monohydrochloride]
deliquescence point [1]: ~75 % RH | temperature range in which diffracted peaks start to disappear (loss in structure, becomes amorphous) [2]: 100-160 °C | effect of water vapor exposure on crystallinity [3]: loses crystallinity

CC(C)NC[C@@H](C(=O)N1CCN(c2ncnc3c2[C@H](C)C[C@H]3O)CC1)c1ccc(Cl)cc1 [GDC-0068, (S)-2-(4-chlorophenyl)-1-(4-((5R,7R)-7-hydroxy-5-methyl-6,7-dihydro-5H-cyclopenta[d]pyrimidin-4-yl)piperazin-1-yl)-3-(isopropylamino)propan-1-one]
hygroscopicity [4]: hygroscopic | critical micelle concentration [5]: 0.945 g/g

CC(C)NC[C@@H](C(=O)N1CCN(c2ncnc3c2[C@H](C)C[C@H]3O)CC1)c1ccc(Cl)cc1.Cl [compound of formula I, (S)-2-(4-chlorophenyl)-1-(4-((5R,7R)-7-hydroxy-5-methyl-6,7-dihydro-5H-cyclopenta[d]pyrimidin-4-yl)piperazin-1-yl)-3-(isopropylamino)propan-1-one monohydrochloride]
solubility ([6]; antisolvents (organic liquids), pentane, hexane, cyclohexane, heptane, ethyl acetate, iso-propyl acetate, MTBE, methyl iso-butyl ketone, read-out: solubility in antisolvents): < 20 mg/mL | solubility ([6]; solvents (water and organic liquids), water, methanol, ethanol, isopropanol, 2-butanol, t-butanol, 2-methoxy ethanol, THF, 2-methyltetrahydrofuran, toluene, chloroform, dichloromethane, 1,2-dichloroethane, acetone, read-out: solubility in solvents): > 20 mg/mL
